Key:
[1] = for Triple point temperature: DSC; for mass density: 100 kPa, Liquid, Vibrating tube method
[2] = Molar enthalpy of transition or fusion; settings: DSC
[3] = mn = molality of the nth substance listed, in mol/kg; settings: 298.15 K, 100 kPa, Liquid, Falling or rolling sphere viscometry
[4] = xn = mol fraction of the nth substance listed; settings: 100 kPa, Liquid, Vibrating tube method
[5] = excess molar enthalpy (molar enthalpy of mixing); xn = mol fraction of the nth substance listed; settings: 100 kPa, Liquid, Flow calorimetry

CCCC[N+]1(C)CCCC1.O=S(=O)([O-])C(F)(F)C(F)F
Settings | Molar enthalpy of transition or fusion, [2] [kcal/mol] | Triple point temperature, [1] [K]
Crystal 1 | 2.61 | 318.5
Crystal 2 | 3.01 | 279.3

CCCCn1cc[n+](C)c1.O=S(=O)([O-])C(F)(F)C(F)F
[1]
Settings | mass density [kg/m3]
288.15 K | 1355.49
293.15 K | 1351.46
298.15 K | 1347.31
303.15 K | 1343.19
308.15 K | 1339.08
313.15 K | 1335.01
318.15 K | 1330.9
323.15 K | 1326.84
328.15 K | 1322.8
333.15 K | 1318.77

CCCC[N+]1(C)CCCC1.O=S(=O)([O-])C(F)(F)C(F)F + O
[3]
Settings | viscosity [mPa·s]
m1 = 0.01177 | 0.8996
m1 = 0.02018 | 0.9033
m1 = 0.02912 | 0.9095
m1 = 0.05104 | 0.9233
m1 = 0.07113 | 0.934
m1 = 0.09124 | 0.9463

CCCCn1cc[n+](C)c1.O=S(=O)([O-])C(F)(F)C(F)F + O
[3]
Settings | viscosity [mPa·s]
m1 = 0.0216 | 0.9005
m1 = 0.02818 | 0.9042
m1 = 0.05086 | 0.9161
m1 = 0.06272 | 0.9229
m1 = 0.0705 | 0.9269
m1 = 0.0811 | 0.9328

CCCC[N+]1(C)CCCC1.N#CN=C=[N-] [1-butyl-1-methylpyrrolidinium dicyanamide]
[1]
Settings | mass density [kg/m3]
288.15 K | 1019.08
293.15 K | 1016.25
298.15 K | 1013.43
303.15 K | 1010.62
308.15 K | 1007.83
313.15 K | 1005.05
318.15 K | 1002.29

CCCC[N+]1(C)CCCC1.N#CN=C=[N-] [1-butyl-1-methylpyrrolidinium dicyanamide] + O
[3]
Settings | viscosity [mPa·s]
m1 = 0.01007 | 0.8956
m1 = 0.01538 | 0.8983
m1 = 0.03088 | 0.9043
m1 = 0.04839 | 0.9119
m1 = 0.0703 | 0.921
m1 = 0.09073 | 0.9308

Settings | excess molar enthalpy, [5] [kcal/mol] | mass density, [4] [kg/m3]
288.15 K, x1 = 0.000366 | -0.00048 | 999.262
288.15 K, x1 = 0.000732 | -0.000918 | 999.415
288.15 K, x1 = 0.001097 | -0.00134 | 999.558
288.15 K, x1 = 0.001462 | -0.00175 | 999.693
288.15 K, x1 = 0.001827 | -0.00212 | 999.827
288.15 K, x1 = 0.002192 | – | 999.945
298.15 K, x1 = 0.000366 | -0.00027 | 997.161
298.15 K, x1 = 0.000732 | -0.000516 | 997.266
298.15 K, x1 = 0.001098 | -0.000743 | 997.365
298.15 K, x1 = 0.001463 | -0.000963 | 997.458
298.15 K, x1 = 0.001828 | -0.00117 | 997.547
298.15 K, x1 = 0.002193 | -0.00138 | 997.632
308.15 K, x1 = 0.000366 | -6.21e-05 | 994.108
308.15 K, x1 = 0.000731 | -0.0001 | 994.175
308.15 K, x1 = 0.001097 | -0.000127 | 994.237
308.15 K, x1 = 0.001462 | -0.00016 | 994.294
308.15 K, x1 = 0.001827 | -0.000201 | 994.349
308.15 K, x1 = 0.002192 | -0.00022 | 994.4
318.15 K, x1 = 0.000366 | 0.000141 | 990.258
318.15 K, x1 = 0.000731 | 0.000301 | 990.295
318.15 K, x1 = 0.001097 | 0.000471 | 990.326
318.15 K, x1 = 0.001462 | 0.000643 | 990.353
318.15 K, x1 = 0.001826 | 0.00082 | 990.377
318.15 K, x1 = 0.002192 | 0.000997 | 990.398

Reference: the NIST ThermoML archive (doi:10.1016/j.jct.2018.02.017)
